System: DOI-induced head-twitch response (HTR)
Test: DOI-induced head-twitch response assay
Assay type: in vivo, mouse
Description: Adult male C57BL/6N mice (10-12 weeks old) purchased from Taconic laboratories (Bar Arbor, ME), and C57BL/6N Hdac2 cKO inhouse bred male mice (described previously in Ibi et al 2017) were used for the experimental groups (vehicle and E6R). For assays including Hdac2 cKO mice, we bred homozygous Hdac2loxPAoxP mice to the CaMKIIα-Cre transgenic line and used the Hdac2loxP/loxP:CaMKIIα-Cre (Hdac2 cKO) mice and control littermates. All animals were housed in groups of 5-6 in 500 cm^2 Plexiglas cages (Allentown, NJ) in the animal care facilities at 12 h light/dark cycle (lights on, 8:00 to 20:00) at 23° C. with food and water ad libitum. Cages contained bedding (Teklad ¼″ Corncob bedding, Envigo) and one Nestlests™ (Ancare, Bellmore, NY, USA). […] For the Hdac2 cKO group (n=5), an intraperitoneal injection (2 mg/kg; 10 μL/g) of the psychedelic drug (±)-2,5-dimethoxy-4-iodoamphetamine (DOI) (Sigma Aldrich) was delivered and HTR recorded and quantified. […] 24 h after the last injection, DOI (2 mg/kg; 10 μL/g) was injected and HTR subsequently recorded and quantified. […] HTR were recorded during both habituation and post-DOI administration for 30 min and quantified in 15 min bins. […] 24 h after the last injection, both groups received 2 mg/kg DOI, and HTR was recorded for each group as described above. […]

C[C@@H](NC(=O)c1c(O)n2ccccc2nc1=O)c1ccccc1 [E6R, 4-hydroxy-2-oxo-N—((R)-1-phenylethyl)-3,4-dihydro-2H-pyrido[, 2-a]pyrimidine-3-carboxamide]
DOI-induced HTR (HDAC2 cKO mice, 50 mg/kg chronic, vs untreated HDAC2 cKO): no additive effect | DOI-induced HTR (WT mice, 50 mg/kg chronic 10 days, DOI 2 mg/kg): significantly reduced

Source: patent US20240299393A1, “SMALL MOLECULE DISRUPTORS OF PROTEIN INTERACTIONS IN HISTONE DEACETYLASE COMPLEXES” (Dana-Farber Cancer Institute, Inc., priority 2021, published 2024)
